In patent US20200079765A1, “SUBSTITUTED HETEROARYL PYRROLONES AND SALTS THEREOF AND USE THEREOF AS HERBICIDAL ACTIVE SUBSTANCES” (Bayer CropScience Aktiengesellschaft, priority 2016, published 2020):

Assays:
photosystem II (PS II) = target: T1, photosystem II (PS II) (Spinacia oleracea, UniProt P69560); assay: Measurement of the PS II activity in thylakoid membranes (DCPIP reduction, Experimental Part 3, Table E1); assay type: biochemical; conditions: spinach thylakoid membranes
T1 construct: the chloroplasts were osmotically ruptured and the thylakoid membranes were then obtained by centrifugation; from tissue; host or cells: thylakoid membranes from fresh spinach leaves
Procedure: Cooled fresh spinach leaves were comminuted and homogenized in 50 mM phosphate buffer, pH 6.8. 10 mM KCl, 0.34 M sucrose (sucrose buffer) (blender, 1 g of plant material/ml). The homogenate was subsequently filtered through 4 layers of Miracloth and the chloroplasts were isolated by centrifugation, i.e. 10 min of centrifugation at 4400×g (4° C.). The sediment was suspended in 25 ml of sucrose buffer and re-centrifuged for 10 min at 4400×g (4° C.). The sediment was then suspended in 40 ml of 50 mM phosphate buffer, pH 6.8, 10 mM KCl, without sucrose. In this step, the chloroplasts were osmotically ruptured and the thylakoid membranes were then obtained by centrifugation (10 min, 4400×g, 4° C.). The membrane sediment was finally suspended in about 20 ml of 50 mM phosphate buffer, pH 6.8, 10 mM KCl. Following protein determination and activity determination, the membrane suspension was divided into aliquots and frozen in liquid nitrogen. The aliquots were stored at −80° C. Under these conditions, the photosystem II preparation was storage stable for at least three months. The activity determination of photosystem II (PS II) was then carried out using the following test principle: The electron transfer from PS II to an artificial electron acceptor, 2,6-dichlorophenolindophenol (DCPIP), was measured with exposure to light. The concentration of the blue oxidized form of DCPIP was determined spectrophotometrically at wavelength λ=595 nm. […] The activity determination was carried out in microtiter plates (96 cavities) in a reaction volume of 200 μl. Here, 155 μl of dilute membrane suspension were initially charged in 50 mM of phosphate buffer, pH 6.8, 10 mM KCl. Depending on the activity of the PS II preparation, the dilution was adjusted such that the measurement of the decrease in absorption (λ=595 nm) was linear for at least 10 min. In each case 5 μl solution of the test compounds of a concentration of 100 μM in DMSO were added to the enzyme suspension; controls contained 5 μl DMSO; the final concentration of DMSO in the reaction batch was thus 2.5% (v/v); this concentration had no adverse effect on the enzymatic activity. On each microtiter plate, a known PS II inhibitor, for example metribuzin, was used as standard, which allowed the quality of the PS II test to be assessed. The reaction was started by addition of 40 μl DCPIP solution (600 μM in distilled water); the final concentration of DCPIP was 120 μM. Measurement of absorption was carried out over a period of 10 min at 22° C. and with exposure to light. Using metribuzin as comparative substance, the results for the efficacy of the compounds of the general formula (I) at 100 μM are stated in the table below using the following classification: ++++ (inhibition≥90%), +++ (90%>inhibition≥70%), ++ (70%>inhibition≥50%), + (50%>inhibition≥30%).
Effects of selected compounds of the general formula (I) according to the following table E1: […]

Abutilon theophrasti [1] = assay: Herbicidal post-emergence action (Experimental Part 2, C); assay type: in vivo; conditions: post-emergence (Part 2), rated visually after about 3 weeks
Procedure: (§1) Seeds of mono- and dicotyledonous weed plants were placed in plastic pots in sandy loam soil (doubly sown with in each case one species of mono- or dicotyledonous weed plants per pot), covered with soil and cultivated in a greenhouse under controlled growth conditions. 2 to 3 weeks after sowing, the test plants were treated at the one-leaf stage. The compounds of the invention, formulated in the form of wettable powders (WP) or as emulsion concentrates (EC), were applied onto the green parts of the plants as aqueous suspension or emulsion with addition of 0.5% additive at a water application rate of 600 liters per hectare (converted). After the test plants had been kept in the greenhouse under optimum growth conditions for about 3 weeks, the activity of the preparations was rated visually in comparison to untreated controls. For example, 100% activity=the plants have died, 0% activity=like control plants. Tables C1 to C8 below show the effects of selected compounds of the general formula (I) according to Tables I.1 to I.116 on various harmful plants and an application rate corresponding to 1280 g/ha or 320 g/ha, which were obtained by the experimental procedure mentioned above.

Amaranthus retroflexus [2] = assay: as above; assay type: in vivo; conditions: post-emergence (Part 2), application rate 320 g/ha, rated visually after about 3 weeks
Procedure: as §1

Setaria viridis [3] = assay: as above; assay type: in vivo; conditions: post-emergence (Part 2), application rate 1280 g/ha, rated visually after about 3 weeks
Procedure: as §1

Stellaria media [4] = assay: as above; assay type: in vivo; conditions: post-emergence (Part 2), application rate 1280 g/ha, rated visually after about 3 weeks
Procedure: as §1

Abutilon theophrasti [5] = assay: Herbicidal pre-emergence action (Experimental Part 2, D); assay type: in vivo; conditions: pre-emergence (Part 2), scored visually after about 3 weeks
Excerpt: (§2) Seeds of mono- and dicotyledonous weed plants were placed in plastic pots in sandy loam soil (doubly sown with in each case one species of mono- or dicotyledonous weed plants per pot) and covered with soil. The compounds of the invention, formulated in the form of wettable powders (WP) or as emulsion concentrates (EC), were then applied onto the surface of the covering soil as aqueous suspension or emulsion with addition of 0.5% additive at a water application rate of 600 liters per hectare (converted). After the treatment, the pots are placed in a greenhouse and kept under good growth conditions for the trial plants. After about 3 weeks, the effect of the preparations was scored visually in comparison with untreated controls as percentages. For example, 100% activity=the plants have died, 0% activity=like control plants. Tables D1 to D8 below show the effects of selected compounds of the general formula (I) according to Tables I.1 to I.116 on various harmful plants and an application rate corresponding to 1280 g/ha or 320 g/ha, which were obtained by the experimental procedure mentioned above.

Amaranthus retroflexus [6] = assay: as above; assay type: in vivo; conditions: pre-emergence (Part 2), scored visually after about 3 weeks
Excerpt: as §2

Matricaria inodora [7] = assay: as above; assay type: in vivo; conditions: pre-emergence (Part 2), scored visually after about 3 weeks
Excerpt: as §2

Poa annua = assay: as above; assay type: in vivo; conditions: pre-emergence (Part 2), scored visually after about 3 weeks
Excerpt: as §2

Setaria viridis [8] = assay: as above; assay type: in vivo; conditions: pre-emergence (Part 2), scored visually after about 3 weeks
Excerpt: as §2

Stellaria media [9] = assay: as above; assay type: in vivo; conditions: pre-emergence (Part 2), scored visually after about 3 weeks
Excerpt: as §2

Matricaria inodora [10] = assay: Herbicidal post-emergence action (Experimental Part 2, C); assay type: in vivo; conditions: post-emergence (Part 2), application rate 1280 g/ha, rated visually after about 3 weeks
Procedure: as §1

Lolium rigidum = assay: Herbicidal pre-emergence action (Experimental Part 2, D); assay type: in vivo; conditions: pre-emergence (Part 2), application rate 1280 g/ha, scored visually after about 3 weeks
Excerpt: as §2

Row | Effect (inhibition of PS II activity) (photosystem II (PS II)) | Structure (SMILES) | Abutilon theophrasti, herbicidal activity (Abutilon theophrasti [1]; application rate 1280 g/ha) | Amaranthus retroflexus, herbicidal activity (Amaranthus retroflexus [2]) | Stellaria media, herbicidal activity (Stellaria media [4]) | Stellaria media, herbicidal activity (Stellaria media [9]; application rate 320 g/ha) | Matricaria inodora, herbicidal activity (Matricaria inodora [10]) | Abutilon theophrasti, herbicidal activity (Abutilon theophrasti [5]; application rate 1280 g/ha) | Amaranthus retroflexus, herbicidal activity (Amaranthus retroflexus [6]; application rate 1280 g/ha) | Setaria viridis, herbicidal activity (Setaria viridis [8]; application rate 1280 g/ha) | further results
1 | ++++ (inhibition≥90%) | CC1=CC(=O)N(c2cc(C(C)(C)C)no2)C1O (centres unmarked) [I.1-290, 5-Hydroxy-4-methyl-1-(3-tert-butyl-1,2-isoxazol-5-yl)-1,5-dihydro-2H-pyrrol-2-one] | – | – | 100% | 100% | 100% | 90% | 100% | 90% | Abutilon theophrasti, herbicidal activity (Abutilon theophrasti [1]; application rate 320 g/ha): 100%; Matricaria inodora, herbicidal activity (Matricaria inodora [7]; application rate 320 g/ha): 100%; Poa Annua, herbicidal activity (Poa annua; application rate 320 g/ha): 90%
2 | ++++ (inhibition≥90%) | CC1=CC(=O)N(c2cc(C)ns2)C1O (centres unmarked) [I.1-72] | – | 100% | – | – | 100% | – | 90% | – | Stellaria media, herbicidal activity (Stellaria media [9]; application rate 1280 g/ha): 90%
3 | ++++ (inhibition≥90%) | CC1=CC(=O)N(c2cc(CC(C)C)no2)C1O (centres unmarked) [I.1-697] | – | – | – | – | – | – | – | – | –

Continued, compound first:

Row | Structure (SMILES) | Effect (inhibition of PS II activity) (photosystem II (PS II)) | Abutilon theophrasti, herbicidal activity (Abutilon theophrasti [1]; application rate 1280 g/ha) | Amaranthus retroflexus, herbicidal activity (Amaranthus retroflexus [2]) | Stellaria media, herbicidal activity (Stellaria media [4]) | Stellaria media, herbicidal activity (Stellaria media [9]; application rate 320 g/ha) | Matricaria inodora, herbicidal activity (Matricaria inodora [10]) | Abutilon theophrasti, herbicidal activity (Abutilon theophrasti [5]; application rate 1280 g/ha) | Amaranthus retroflexus, herbicidal activity (Amaranthus retroflexus [6]; application rate 1280 g/ha) | Setaria viridis, herbicidal activity (Setaria viridis [8]; application rate 1280 g/ha) | further results
4 | CC1=CC(O)N(c2cc(-c3ccccc3)ns2)C1=O (centres unmarked) [I.2-86] | ++++ (inhibition≥90%) | – | – | – | – | – | – | – | – | –
5 | CC1=CC(O)N(c2onc(C(C)(C)C)c2C)C1=O (centres unmarked) [I.2-300] | ++++ (inhibition≥90%) | 100% | 100% | 100% | 90% | – | – | – | – | Setaria viridis, herbicidal activity (Setaria viridis [3]): 90%; Abutilon theophrasti, herbicidal activity (Abutilon theophrasti [5]; application rate 320 g/ha): 90%; Amaranthus retroflexus, herbicidal activity (Amaranthus retroflexus [6]; application rate 320 g/ha): 100%; Matricaria inodora, herbicidal activity (Matricaria inodora [7]; application rate 1280 g/ha): 90%; Poa Annua, herbicidal activity (Poa annua; application rate 1280 g/ha): 90%; Setaria viridis, herbicidal activity (Setaria viridis [8]; application rate 320 g/ha): 90%
6 | CC1=CC(=O)N(c2cc(C(C)C)no2)C1O (centres unmarked) [I.1-289] | – | 100% | 100% | – | – | 100% | 100% | 90% | 90% | Matricaria inodora, herbicidal activity (Matricaria inodora [7]; application rate 1280 g/ha): 100%; Poa Annua, herbicidal activity (Poa annua; application rate 1280 g/ha): 100%; Stellaria media, herbicidal activity (Stellaria media [9]; application rate 1280 g/ha): 100%
7 | CCC(=O)OC1C(C)=CC(=O)N1c1cc(C(C)(C)C)no1 (centres unmarked) [I.5-290] | – | 100% | – | 100% | 100% | 100% | 100% | – | 90% | Lolium rigidum, herbicidal activity (Lolium rigidum): 90%; Matricaria inodora, herbicidal activity (Matricaria inodora [7]; application rate 320 g/ha): 100%; Poa Annua, herbicidal activity (Poa annua; application rate 320 g/ha): 90%
8 | CC1=CC(=O)N(c2cc(C(F)(F)F)ccn2)C1O (centres unmarked) [I.1-449] | ++++ (inhibition≥90%) | – | – | – | – | – | – | – | – | –
